Source: PubChem BioAssay (NCI)
“And” between values parts separate entries of the source, which are not always exact repeats. Identical values can stand only once.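 How tested: cells in 96-well plates exposed to compound for 48 hours at five concentrations. Here, GI50 denotes the concentration required for 50% inhibition of growth. TGI: concentration producing complete growth inhibition.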

How the values were obtained:
Experiment in all cases: growth of human tumour cells (NCI), 48 h
MALME-3M melanoma = tested on: MALME-3M melanoma
TK-10 renal = tested on: TK-10 renal
HL-60(TB) leukemia = tested on: HL-60(TB) leukemia
OVCAR-5 ovarian = tested on: OVCAR-5 ovarian
SF-539 CNS = tested on: SF-539 CNS
786-0 renal = tested on: 786-0 renal
NCI-H226 lung = tested on: NCI-H226 lung
OVCAR-4 ovarian = tested on: OVCAR-4 ovarian
SK-MEL-5 melanoma = tested on: SK-MEL-5 melanoma
EKVX NSCLC = tested on: EKVX NSCLC

`Cc1ccc(NC(=O)CC/C(CC(=O)C(C)(C)C)=N/NC(=O)C(N)=O)cc1C` was tested, and the TGI (MALME-3M melanoma) was > 100 µM, the TGI (TK-10 renal) was > 100 µM and the TGI (HL-60(TB) leukemia) was > 100 µM. The TGI (OVCAR-5 ovarian) was > 100 µM, the TGI (SF-539 CNS) was > 100 µM and the TGI (786-0 renal) was > 100 µM. The TGI (NCI-H226 lung) was > 100 µM, the TGI (OVCAR-4 ovarian) was > 100 µM and the TGI (SK-MEL-5 melanoma) was > 100 µM. The TGI (EKVX NSCLC) was > 100 µM.
Compound `CC1=CC[C@@H]2C(C)(C)C(=O)CC[C@@]2(C)[C@@H]1COc1ccc2ccc(=O)oc2c1` has a GI50 (MALME-3M melanoma) of 14.4 µM, a TGI (MALME-3M melanoma) of 38.9 µM and a GI50 (TK-10 renal) of 45.3 µM. For the same compound, the TGI (TK-10 renal) was > 100 µM, the GI50 (HL-60(TB) leukemia) was 7.3 µM and the TGI (HL-60(TB) leukemia) was 29.2 µM. The GI50 (OVCAR-5 ovarian) was 25.9 µM, the TGI (OVCAR-5 ovarian) was > 100 µM and the GI50 (SF-539 CNS) was 20.1 µM. For the same compound, the TGI (SF-539 CNS) was 63.8 µM, the GI50 (786-0 renal) was 46.8 µM and the TGI (786-0 renal) was > 100 µM. The GI50 (NCI-H226 lung) was 8.7 µM, the TGI (NCI-H226 lung) was 33.7 µM and the GI50 (OVCAR-4 ovarian) was 5.53 µM. It also gave a TGI (OVCAR-4 ovarian) of 44.8 µM, a GI50 (SK-MEL-5 melanoma) of 4 µM and a TGI (SK-MEL-5 melanoma) of 14.2 µM. For the same compound, the GI50 (EKVX NSCLC) was 13.6 µM and the TGI (EKVX NSCLC) was > 100 µM.
`NC(N)=NS(=O)(=O)c1ccc(Nc2c3ccccc3nc3c(C(=O)N4CCN(CCO)CC4)cccc23)cc1` was tested, and the TGI (MALME-3M melanoma) was > 100 µM, the TGI (TK-10 renal) was > 100 µM and the TGI (HL-60(TB) leukemia) was > 100 µM. For the same compound, the TGI (OVCAR-5 ovarian) was > 100 µM, the TGI (SF-539 CNS) was > 100 µM and the TGI (786-0 renal) was > 100 µM. For the same compound, the TGI (NCI-H226 lung) was > 100 µM, the TGI (OVCAR-4 ovarian) was > 100 µM and the TGI (SK-MEL-5 melanoma) was > 100 µM. For the same compound, the TGI (EKVX NSCLC) was > 100 µM.
For `Cc1nc2ccccc2c(=O)n1/N=C(\N=Nc1cc(Cl)ccc1Cl)c1cccc(-c2ccco2)c1`, the TGI (MALME-3M melanoma) was > 100 µM, the TGI (TK-10 renal) was > 100 µM and the TGI (HL-60(TB) leukemia) was > 10 µM. For the same compound, the TGI (OVCAR-5 ovarian) was > 100 µM, the TGI (SF-539 CNS) was > 100 µM and the TGI (786-0 renal) was > 100 µM. For the same compound, the TGI (NCI-H226 lung) was > 100 µM, the TGI (OVCAR-4 ovarian) was > 100 µM and the TGI (SK-MEL-5 melanoma) was > 100 µM. The TGI (EKVX NSCLC) was > 100 µM.
With `COc1ccc2c(c1)[C@]1(C[C@H]1c1ccc3c(/C=C/c4ccc(CN5C[C@@H](C)O[C@@H](C)C5)cc4)n[nH]c3c1)C(=O)N2` the GI50 (MALME-3M melanoma) was 2.22 µM, the TGI (MALME-3M melanoma) was 8.63 µM and the GI50 (TK-10 renal) was 11.8 µM. For the same compound, the TGI (TK-10 renal) was > 61.3 µM, the GI50 (HL-60(TB) leukemia) was 2.69 µM and the TGI (HL-60(TB) leukemia) was 13.7 µM. The GI50 (OVCAR-5 ovarian) was 8.26 µM, the TGI (OVCAR-5 ovarian) was > 100 µM and the GI50 (SF-539 CNS) was 1.63 µM. It also gave a TGI (SF-539 CNS) of 4.63 µM, a GI50 (786-0 renal) of 2.3 µM and a TGI (786-0 renal) of 8.58 µM. For the same compound, the GI50 (NCI-H226 lung) was 14.5 µM, the TGI (NCI-H226 lung) was > 100 µM and the GI50 (OVCAR-4 ovarian) was 2.65 µM. For the same compound, the TGI (OVCAR-4 ovarian) was > 100 µM, the GI50 (SK-MEL-5 melanoma) was 1.77 µM and the TGI (SK-MEL-5 melanoma) was 3.87 µM. The GI50 (EKVX NSCLC) was 6.01 µM and the TGI (EKVX NSCLC) was > 100 µM.
In the case of `N=CCCN(CCC=N)c1ccc(/C=C2\CN(NC(=O)c3ccc(Cl)cc3)C(c3ccccc3)=N2)cc1`, the TGI (MALME-3M melanoma) is reported as > 100 µM, the TGI (TK-10 renal) is reported as > 100 µM and the TGI (HL-60(TB) leukemia) is reported as > 100 µM. The TGI (OVCAR-5 ovarian) was > 100 µM, the TGI (SF-539 CNS) was > 100 µM and the TGI (786-0 renal) was > 100 µM. The TGI (NCI-H226 lung) was > 100 µM, the TGI (OVCAR-4 ovarian) was > 100 µM and the TGI (SK-MEL-5 melanoma) was > 100 µM. For the same compound, the TGI (EKVX NSCLC) was > 100 µM.
In the case of `COc1cc2ccccc2c2cc([N+](=O)[O-])oc12`, the TGI (MALME-3M melanoma) is reported as 0.418 µM, the TGI (TK-10 renal) is reported as 5.44 µM and the TGI (HL-60(TB) leukemia) is reported as > 31.2 µM. The TGI (OVCAR-5 ovarian) was 9.93 µM, the TGI (SF-539 CNS) was 7.75 µM and the TGI (786-0 renal) was 7.49 µM. The TGI (NCI-H226 lung) was 3.04 µM, the TGI (OVCAR-4 ovarian) was > 44 µM and the TGI (SK-MEL-5 melanoma) was 0.293 µM. The TGI (EKVX NSCLC) was 14.1 µM.
`COc1cc(=O)oc(/C=C/C=O)c1C` showed a TGI (MALME-3M melanoma) of 39.4 µM, a TGI (TK-10 renal) of 76.2 µM and a TGI (HL-60(TB) leukemia) of 83.9 µM. The TGI (OVCAR-5 ovarian) was > 100 µM, the TGI (SF-539 CNS) was 34.2 µM and the TGI (786-0 renal) was 42 µM. It also gave a TGI (NCI-H226 lung) of 90.9 µM, a TGI (OVCAR-4 ovarian) of 32.5 µM and a TGI (SK-MEL-5 melanoma) of 38.4 µM. It also gave a TGI (EKVX NSCLC) of 94.6 µM.
`Cc1cc(=O)n(-c2ccccc2)c(=O)o1` was tested, and the TGI (MALME-3M melanoma) was > 100 µM, the TGI (TK-10 renal) was > 100 µM and the TGI (HL-60(TB) leukemia) was > 100 µM. For the same compound, the TGI (OVCAR-5 ovarian) was > 100 µM, the TGI (SF-539 CNS) was > 100 µM and the TGI (786-0 renal) was > 100 µM. For the same compound, the TGI (NCI-H226 lung) was > 100 µM, the TGI (OVCAR-4 ovarian) was > 100 µM and the TGI (SK-MEL-5 melanoma) was > 100 µM. For the same compound, the TGI (EKVX NSCLC) was > 100 µM.
`O=C(CC(=O)c1ccc([N+](=O)[O-])cc1)C(=O)Nc1nccs1` was tested, and the TGI (MALME-3M melanoma) was > 100 µM, the TGI (TK-10 renal) was > 100 µM and the TGI (HL-60(TB) leukemia) was > 100 µM. For the same compound, the TGI (OVCAR-5 ovarian) was > 100 µM, the TGI (SF-539 CNS) was > 100 µM and the TGI (786-0 renal) was > 100 µM. The TGI (NCI-H226 lung) was > 100 µM, the TGI (OVCAR-4 ovarian) was > 100 µM and the TGI (SK-MEL-5 melanoma) was > 100 µM. For the same compound, the TGI (EKVX NSCLC) was > 100 µM.
With `CC1=CCC2(C#N)CCC1C2O` (stereo not given) the TGI (MALME-3M melanoma) was > 100 µM, the TGI (TK-10 renal) was > 100 µM and the TGI (HL-60(TB) leukemia) was > 100 µM. For the same compound, the TGI (OVCAR-5 ovarian) was > 100 µM, the TGI (SF-539 CNS) was > 100 µM and the TGI (786-0 renal) was > 100 µM. For the same compound, the TGI (NCI-H226 lung) was > 100 µM, the TGI (OVCAR-4 ovarian) was > 100 µM and the TGI (SK-MEL-5 melanoma) was > 100 µM. The TGI (EKVX NSCLC) was > 100 µM.
With `CC1(C)C(c2ccccc2)C12CCC1(C2=O)C(c2ccccc2)C1(C)C` (stereo not given) the TGI (MALME-3M melanoma) was 72.5 µM, the TGI (TK-10 renal) was > 100 µM and the TGI (HL-60(TB) leukemia) was 37.4 µM. The TGI (OVCAR-5 ovarian) was 81.8 µM, the TGI (SF-539 CNS) was 75.2 µM and the TGI (786-0 renal) was 66.2 µM. The TGI (NCI-H226 lung) was 36.3 µM, the TGI (OVCAR-4 ovarian) was > 100 µM and the TGI (SK-MEL-5 melanoma) was 37.9 µM. It also gave a TGI (EKVX NSCLC) of 69.3 µM.
With `CN(Cc1cnc(N)nc1N)c1ccc(C(=O)O)cc1` the GI50 (MALME-3M melanoma) was > 100 µM, the TGI (MALME-3M melanoma) was > 100 µM and the GI50 (TK-10 renal) was > 100 µM. For the same compound, the TGI (TK-10 renal) was > 100 µM, the GI50 (HL-60(TB) leukemia) was > 100 µM and the TGI (HL-60(TB) leukemia) was > 100 µM. For the same compound, the GI50 (OVCAR-5 ovarian) was > 100 µM, the TGI (OVCAR-5 ovarian) was > 100 µM and the GI50 (SF-539 CNS) was > 100 µM. For the same compound, the TGI (SF-539 CNS) was > 100 µM, the GI50 (786-0 renal) was > 100 µM and the TGI (786-0 renal) was > 100 µM. The GI50 (NCI-H226 lung) was > 100 µM, the TGI (NCI-H226 lung) was > 100 µM and the GI50 (OVCAR-4 ovarian) was > 100 µM. The TGI (OVCAR-4 ovarian) was > 100 µM, the GI50 (SK-MEL-5 melanoma) was > 100 µM and the TGI (SK-MEL-5 melanoma) was > 100 µM. The GI50 (EKVX NSCLC) was > 100 µM and the TGI (EKVX NSCLC) was > 100 µM.
`NC(C/[N+]([O-])=N/O)C(=O)O` (stereo not given) was tested, and the GI50 (MALME-3M melanoma) was 62.1 µM, the TGI (MALME-3M melanoma) was > 487 µM and the GI50 (TK-10 renal) was > 66.2 µM and > 100 µM and 30.9 µM. For the same compound, the TGI (TK-10 renal) was > 459 µM, the TGI (HL-60(TB) leukemia) was > 100 µM and 176 µM and the TGI (OVCAR-5 ovarian) was > 100 µM and 230 µM. The TGI (SF-539 CNS) was > 100 µM and 366 µM, the GI50 (786-0 renal) was 1.16 µM and 9.72 µM and 4.15 µM and the TGI (786-0 renal) was > 500 µM. The TGI (NCI-H226 lung) was > 468 µM, the GI50 (OVCAR-4 ovarian) was 23.6 µM and > 100 µM and 21.2 µM and the TGI (OVCAR-4 ovarian) was > 449 µM. For the same compound, the GI50 (SK-MEL-5 melanoma) was 1.9 µM and 8.31 µM and 1.46 µM, the TGI (SK-MEL-5 melanoma) was > 42.7 µM and > 100 µM and 114 µM and the TGI (EKVX NSCLC) was > 100 µM and 371 µM.
With `O=S1CSCS1` (stereo not given) the TGI (MALME-3M melanoma) was > 100 µM, the TGI (TK-10 renal) was > 100 µM and the TGI (HL-60(TB) leukemia) was > 100 µM. The TGI (OVCAR-5 ovarian) was > 100 µM, the TGI (SF-539 CNS) was > 100 µM and the TGI (786-0 renal) was > 100 µM. The TGI (NCI-H226 lung) was > 100 µM, the TGI (OVCAR-4 ovarian) was > 100 µM and the TGI (SK-MEL-5 melanoma) was > 100 µM. For the same compound, the TGI (EKVX NSCLC) was > 100 µM.
